Laboratory results reported in US9040713B2, “Methods of managing blood sugar levels and compositions related thereto” (EMORY UNIVERSITY, priority 2010, dated 2015).

Assays:
TrkB = molecular target: T1, TrkB (Homo sapiens, UniProt Q16620); test: TrkB phosphorylation in transfected HEK293 cells (Western blot); type: cell-based; conditions: 5 μM
T1 construct: expressed in transfected cells; host or cells: HEK293

IR-EGFR = molecular target: T2, IR-EGFR (Homo sapiens, UniProt P00533+P06213); test: His-tagged chimaeric receptor phosphorylation in CHO cells; type: cell-based; conditions: 5 μM, 30 min
T2 construct: the cDNA encoding extracellular IR was fused to intracellular IGFR or EGFR; expressed in transfected cells; host or cells: CHO
Description: (A) Chemical structure of 4524-E7. (B) Effect of 4524-E7 and other 1,4-naphthoquinone derivatives on IR phosphorylation in CHO-IR cells. CHO-IR cells were cultured in 96-well plates and treated with 5 μM compounds for 15 min at 37 C. Cells were lysed, and IR phosphorylations were tested by ELISA. The IR phosphorylation activities of the tested compounds were expressed as a percentage of the vehicle. (C) 4524-E7 and 1,4-naphthoquinone derivates activate IR and its downstream signaling in CHO-IR cells. […] The cell lysates were analyzed by immunoblotting with various indicated antibodies. The phosphorylated IR was immunoprecipitated using PY20 and analyzed by immunoblotting with anti-IR13 antibody. […] The phosphorylation of each receptor was determined by Western blot using specific antibodies as indicated. (E) 4524-E7 activates IR through its ICD. Upper panel: Diagram of chimaeric receptors. Lower panel: His-tagged wild-type IR, IGFR-IR, IR-IGFR, and IR-EGFR constructs were transfected into CHO cells followed vehicle or 5 μM 4524-E7 treatment for 30 min. Then the cells were lysated and the transfected receptor fused to His tag were pulled down with Ni+ beads, followed by western blot against anti-p-Tyr and anti-His. The cell lysates were tested with anti-p-Akt and anti-Akt.
The cDNA encoding wild type IR was introduced into the pcDNA3.1/V5-His-TOPO vector. […]

[1] = test system: EGFR, ErbB2, EphAl, FGFR1, VEGFR1, cMet, TrkB, PDGFRa, RET; test: RTK kinase profile screen assay; type: biochemical
IR = IR (Homo sapiens, UniProt P06213); test: Cell-based ELISA of IR tyrosine phosphorylation in CHO-IR cells; parameters: expressed in transfected cells; host or cells: CHO (CHO-IR, gift from Dr. Nicholas Webster, UCSD)
Description: A cell-based screening assay was developed with Chinese hamster ovary cells stably transfected with IR (CHO-IR) by using an ELISA to determine the IR tyrosine phosphorylation. […] Other 1,4-Napthoquinones that are structurally related to 4524-E7 were evaluated.
CHO-IR cells were seeded in a 96-well plate at 15,000 cells per well in […] of 0.1% FBS medium with 0.1% FBS. […] Cells were lysed, and phosphorylated receptors were captured with pY20 immobilized on ELISA plates. Bound receptors were washed, then detected using an anti-IR beta antibody, followed by an horseradish peroxidase-conjugated secondary antibody and colorimetric detection with 3,3′,5,5′-tetramethylbenzidine.
A cell-based ELISA assay was developed with an IR stably transfected Chinese Hamster Ovary (CHO-IR) cell line. […] The cell lysates were subjected to the sandwich ELISA using immobilized anti-phosphotyrosine antibody and anti-IR antibody.

ob/ob mice = test: Plasma insulin in ob/ob mice; type: in vivo, mouse; conditions: single oral doses
Description: After a 12 h fasting, ob/ob mice were bled from the tail vein for a baseline (time −60 minutes) measurement. Then animals were orally administered 5 mg/kg compound in 0.5% methylcellulose. One hour after the drug administration, glucose (2 g/kg) was administrated intraperitoneally. Blood glucose levels were measured 0, 30, 60, 90, 120, and 180 min after administration of glucose. The blood was collected in tubes, kept at 4° C. overnight, and plasma was prepared by centrifugation (2,000 g, 20 min). Plasma insulin was measured by enzyme-linked immunosorbent assay with a rat insulin kit (Crystal Chem. Inc., USA). Insulin was quantified using the insulin standard curve.

Chain of IR (P06213 763-1382 limits assumed): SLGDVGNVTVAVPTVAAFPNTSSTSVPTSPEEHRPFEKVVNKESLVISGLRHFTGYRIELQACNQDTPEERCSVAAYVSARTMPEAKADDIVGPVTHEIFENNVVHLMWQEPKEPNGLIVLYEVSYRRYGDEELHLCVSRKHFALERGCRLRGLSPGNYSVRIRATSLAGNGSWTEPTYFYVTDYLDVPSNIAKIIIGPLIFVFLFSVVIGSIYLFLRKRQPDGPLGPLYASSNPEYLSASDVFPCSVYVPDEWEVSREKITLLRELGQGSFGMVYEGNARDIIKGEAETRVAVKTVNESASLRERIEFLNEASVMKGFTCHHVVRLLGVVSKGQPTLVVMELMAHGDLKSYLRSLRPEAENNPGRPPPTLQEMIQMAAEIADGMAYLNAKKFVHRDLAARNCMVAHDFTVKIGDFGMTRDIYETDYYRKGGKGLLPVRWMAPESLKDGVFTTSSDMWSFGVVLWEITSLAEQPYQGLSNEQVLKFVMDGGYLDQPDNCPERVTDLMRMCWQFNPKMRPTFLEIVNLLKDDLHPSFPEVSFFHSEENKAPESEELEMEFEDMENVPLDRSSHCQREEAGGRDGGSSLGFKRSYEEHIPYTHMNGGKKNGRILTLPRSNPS
Chain of IR (P06213 28-758 limits assumed): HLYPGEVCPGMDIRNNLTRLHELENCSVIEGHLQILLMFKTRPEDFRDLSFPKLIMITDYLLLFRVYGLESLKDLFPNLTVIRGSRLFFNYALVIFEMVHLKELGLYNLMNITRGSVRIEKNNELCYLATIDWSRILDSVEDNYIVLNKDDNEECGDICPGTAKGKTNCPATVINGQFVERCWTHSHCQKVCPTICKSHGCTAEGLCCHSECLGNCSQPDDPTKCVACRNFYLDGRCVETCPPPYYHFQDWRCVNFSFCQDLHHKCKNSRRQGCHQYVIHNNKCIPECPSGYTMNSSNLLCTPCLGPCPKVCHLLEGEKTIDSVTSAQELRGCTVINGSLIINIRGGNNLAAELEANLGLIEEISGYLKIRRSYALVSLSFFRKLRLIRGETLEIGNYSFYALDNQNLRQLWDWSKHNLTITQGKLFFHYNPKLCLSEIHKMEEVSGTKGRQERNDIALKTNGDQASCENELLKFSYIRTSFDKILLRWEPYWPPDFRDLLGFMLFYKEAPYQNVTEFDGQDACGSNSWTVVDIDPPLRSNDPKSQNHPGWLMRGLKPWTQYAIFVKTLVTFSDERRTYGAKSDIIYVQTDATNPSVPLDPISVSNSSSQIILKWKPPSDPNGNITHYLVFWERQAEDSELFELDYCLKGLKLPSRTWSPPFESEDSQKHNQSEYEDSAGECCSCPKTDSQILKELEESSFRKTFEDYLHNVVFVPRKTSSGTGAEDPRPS
T2 sequence (P00533 669-1210 limits assumed, one chain of several): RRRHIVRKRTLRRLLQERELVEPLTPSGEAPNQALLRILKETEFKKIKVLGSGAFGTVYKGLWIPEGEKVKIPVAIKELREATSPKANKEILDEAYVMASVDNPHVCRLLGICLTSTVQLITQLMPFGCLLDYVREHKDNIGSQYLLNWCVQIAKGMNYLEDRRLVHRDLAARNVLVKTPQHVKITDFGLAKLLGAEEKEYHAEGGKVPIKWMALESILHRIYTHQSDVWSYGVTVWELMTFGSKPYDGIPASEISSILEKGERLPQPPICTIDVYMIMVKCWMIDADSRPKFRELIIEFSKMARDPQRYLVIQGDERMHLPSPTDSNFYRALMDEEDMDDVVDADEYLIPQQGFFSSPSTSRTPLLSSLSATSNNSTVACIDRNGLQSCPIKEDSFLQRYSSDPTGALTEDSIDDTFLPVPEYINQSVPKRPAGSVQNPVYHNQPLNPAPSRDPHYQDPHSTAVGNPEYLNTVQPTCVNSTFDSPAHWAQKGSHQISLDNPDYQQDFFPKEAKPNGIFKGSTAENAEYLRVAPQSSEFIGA
T1 sequence (Q16620 32-822, species assumed): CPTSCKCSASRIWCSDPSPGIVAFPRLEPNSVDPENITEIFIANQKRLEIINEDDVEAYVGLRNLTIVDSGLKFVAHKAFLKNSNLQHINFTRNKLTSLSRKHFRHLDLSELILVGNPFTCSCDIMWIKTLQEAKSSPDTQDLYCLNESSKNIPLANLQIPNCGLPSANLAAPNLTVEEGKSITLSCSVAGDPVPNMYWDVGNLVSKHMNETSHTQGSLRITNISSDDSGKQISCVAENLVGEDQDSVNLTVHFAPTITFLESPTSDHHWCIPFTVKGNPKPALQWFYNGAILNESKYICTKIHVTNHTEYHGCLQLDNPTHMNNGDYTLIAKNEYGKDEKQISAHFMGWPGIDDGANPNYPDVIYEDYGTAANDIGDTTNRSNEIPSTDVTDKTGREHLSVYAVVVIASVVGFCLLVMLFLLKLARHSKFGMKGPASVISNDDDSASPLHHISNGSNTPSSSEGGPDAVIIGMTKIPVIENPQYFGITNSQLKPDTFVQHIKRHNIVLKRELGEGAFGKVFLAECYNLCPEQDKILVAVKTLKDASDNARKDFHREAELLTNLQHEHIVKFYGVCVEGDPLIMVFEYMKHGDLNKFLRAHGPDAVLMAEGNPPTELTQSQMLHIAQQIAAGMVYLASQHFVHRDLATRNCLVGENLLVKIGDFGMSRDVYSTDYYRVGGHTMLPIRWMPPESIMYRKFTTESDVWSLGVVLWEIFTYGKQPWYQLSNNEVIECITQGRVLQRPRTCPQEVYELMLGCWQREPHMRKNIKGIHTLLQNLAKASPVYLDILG

TrkB activation (TrkB)	tyrosine phosphorylation of chimaeric receptor (IR-EGFR)	activation of tested RTKs [1]	IR phosphorylation (IR; 5 μM, 15 min, CHO-IR cells, ELISA)	concentration at which IR activation peaked (IR; 15 min, dose-response)	concentration at which IR activation started (IR; 15 min, dose-response)	time at which IR activation is triggered (IR; 4524-E7 5 μM or insulin 50 nM)	time at which IR activation peaked (IR; 4524-E7 5 μM or insulin 50 nM)	SMILES	plasma insulin levels (ob/ob mice)
not any other RTKs	not phosphorylated	none of the tested RTKs	about 250 % of basal level	10 µM	2.5 µM	5 min	30 min	O=C1c2ccccc2C(=O)C2SC(Nc3ccc(Cl)cc3)=NC12 (stereo not drawn) [4524-E7, 2-((4-chlorophenyl)amino)naphtho[2,3-d]thiazole-4,9(3aH,9aH)-dione]	
								CC(=O)Oc1ccc(OC(C)=O)c2c1C(=O)C(Cl)=C(Cl)C2=O [DDN, 5,8-diacetyloxy-2,3-dichloro-1,4-naphthoquinone]	no significant effect on plasma insulin levels
